Measurements: US8629168B2, “Benzoxazoles and oxazolopyridines being useful as janus kinases inhibitors” (priority 2006, dated 2014)

Columns and labels:
[1] = biological target: T1, GST-JAK2 (Homo sapiens, UniProt O60674); assay: JAK2 kinase assay of the general description (alternative method, flash plate); format: biochemical; details: 1.0 μM ATP, read-out: IC50 with test in general description (named “alternative method to that given in the examples”) (“flash plate”)
T1 construct: the amino acid domain ASP751-VAL1129 of the JAK2 protein
Experimental: Baculovirus including the amino acid domain ASP751-VAL1129 of the JAK2 protein is obtainable by ProQinase, Freiburg, Germany. The virus is scaled up as following: Virus containing media is collected from the transfected cell culture and used for infection to increase its titer. Virus containing media obtained after two rounds of infection is used for large-scale protein expression. For large-scale protein expression 100 cm^2 round tissue culture plates are seeded with 5×10^7 cells/plate and infected with 1 mL of virus-containing media (approx. 5 MOIs). After 3 days the cells are scraped off the plate and centrifuged at 500 rpm for 5 min. Cell pellets from 10-20, 100 cm^2 plates, are re-suspended in 50 mL of ice-cold lysis buffer (25 mMTris-HCl, pH7.5, 2 mMEDTA, 1% NP-40, 1 mM DTT, 1 mMP MSF). The cells are stirred on ice for 15 min and then centrifuged at 5000 rpms for 20 min. The protein is purified by loading the centrifuged cell lysate onto a 2 mL glutathione-sepharose column and washed three times with 10 mL of 25 mM Tris-HCl, pH 7.5, 2 mM EDTA, 1 mM DTT, 200 mM NaCl. The GST-tagged proteins are then eluted by 10 applications (1 mL each) of 25 mM Tris-HCl, pH 7.5, 10 mM reduced-glutathione, 100 mM NaCl, 1 mM DTT, 10% Glycerol and stored at −70° C.
Cancer Cell; 5: 231-239]. The test compound is dissolved in DMSO (10 mM) and stored at −20° C. Serial dilutions are freshly made in DMSO and are […] concentrated than test solutions (“pre-dilution plates”). They are further diluted with pure water to yield “master plates” containing 3 times concentrated test solutions in 3% DMSO. The final volume of the assay is 30 μL containing 10 μL of test solution (1% DMSO), 10 μL assay mix including the assay components described by Garcia-Echeverria (2004) and in the following section as well as 10 μL enzyme. The pipetting steps can be programmed to be performed either on the MultiPROBE Iix, MultiPROBE IILx or HamiltonSTAR robots in the 96 well format.
The protein kinase assays are carried as described in details by Garcia-Echeverria (see above). The assay for JAK2 is carried out in 96-well plates at ambient temperature for 10 min (filter-biding method) or 30 min (flash plates) in a finial volume of 30 μL including the following components: 300 ng of GST-JAK2, 20 mM Tris-HCl, pH 7.5, 1.0 mM MnCl2, 10 mM MgCl2, 1 mM DTT, 3 μg/mL poly(Glu, Tyr) 4:1, 1% DMSO and 1.0 μM ATP (γ-[^33P]-ATP 0.1 μCi); The assays are terminated by the addition of 20 μl of 125 mM EDTA. The capturing of the phosphorylated peptides by the filter-binding method is performed as following: 40 μL of the reaction mixture are transferred onto Immobilon-PVDF membranes previously soaked for 5 min with methanol, rinsed with water, then soaked for 5 min with 0.5% H3PO4 and mounted on vacuum manifold with disconnected vacuum source. After spotting all samples, vacuum is connected and each well rinsed with 200 μl 0.5% H3PO4. Free membranes are removed and washed 4× on a shaker with 1.0% H3PO4, once with ethanol. Membranes are counted after drying at ambient temperature, mounting in Packard TopCount 96-well frame, and addition of 10 μl/well of Microscint. The plates are eventually sealed and counted in a microplate scintillation counter (TopCount NXT, TopCount NXT HTS, PerkinElmer, Brussels, Belgium).
The assays for the flash plate method is carried out in a total volume of 30 μL at RT in conventional 96-well flash plates. The reaction is stopped after 30 min by the addition of 20 μL of 125 mM EDTA The assay plates are then washed three times with PBS and dried at room temperature. The plates are sealed and counted in a microplate scintillation counter (TopCount NXT, TopCount NXT HTS). IC50 values are calculated by linear regression analysis of the percentage inhibition of the compound either in duplicate, at four concentrations (usually 0.01, 0.1, 1 and 10 μM) or as 8 single point IC50 starting at 10 μM following by 1:3 dilutions.

[2] = biological target: T2, GST-JAK2(808-1132) (Homo sapiens, UniProt O60674); assay: EPK JAK/TYK-kinase family profiling assay (Caliper mobility shift), JAK2; format: biochemical; details: Caliper mobility shift assay of Example 187, 20 μM ATP, read-out: IC50 with Test in present Example
T2 construct: GST-JAK2(808-1132) is purchased from Invitrogen; purchased Invitrogen (Carlsbad, USA) #4288
Summary of the method: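 Caliper mobility-shift assay with the GST-tagged kinase domain and a fluorescently labeled peptide substrate plus ATP, run 60 min at 30° C and then stopped with EDTA buffer. Turnover was taken as the substrate/product ratio. Compounds were tested at eight final concentrations from 10 to 0.003 μM.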

T2 sequence (O60674 808-1132): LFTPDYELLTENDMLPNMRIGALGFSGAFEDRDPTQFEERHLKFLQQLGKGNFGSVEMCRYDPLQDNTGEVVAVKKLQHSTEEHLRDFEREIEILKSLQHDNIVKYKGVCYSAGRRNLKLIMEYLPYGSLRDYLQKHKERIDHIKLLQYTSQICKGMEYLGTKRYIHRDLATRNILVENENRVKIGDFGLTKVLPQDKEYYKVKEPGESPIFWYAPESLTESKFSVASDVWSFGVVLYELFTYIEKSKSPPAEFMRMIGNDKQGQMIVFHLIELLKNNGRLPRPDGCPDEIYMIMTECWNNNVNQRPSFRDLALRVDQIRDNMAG
T1 sequence (O60674 751-1129): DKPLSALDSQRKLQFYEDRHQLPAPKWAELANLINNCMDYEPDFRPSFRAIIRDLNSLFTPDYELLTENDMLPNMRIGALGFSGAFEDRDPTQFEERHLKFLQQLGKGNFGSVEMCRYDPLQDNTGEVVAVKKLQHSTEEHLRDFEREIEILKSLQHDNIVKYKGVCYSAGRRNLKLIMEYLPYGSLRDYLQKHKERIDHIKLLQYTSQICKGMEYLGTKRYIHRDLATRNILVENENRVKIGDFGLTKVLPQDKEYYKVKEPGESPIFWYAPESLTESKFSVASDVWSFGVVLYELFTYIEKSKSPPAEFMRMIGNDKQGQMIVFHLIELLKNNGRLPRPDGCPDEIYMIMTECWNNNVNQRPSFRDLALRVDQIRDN

Row | SMILES | IC50 [1] [µM] | IC50 [2] [µM]
1 | COc1cc(Nc2nc3cccc(-c4ccc(NS(C)(=O)=O)cc4)c3o2)cc(OC)c1OC [Example 26, N-{4-[2-(3,4,5-Trimethoxy-phenylamino)-benzooxazol-7-yl]-phenyl}-methanesulfonamide] | 0.052 | –
2 | COc1cc(Nc2nc3cccc(-c4ccc(CNC(C)=O)cc4)c3o2)cc(OC)c1OC [Example 30, N-{4-[2-(3,4,5-Trimethoxy-phenylamino)-benzooxazol-7-yl]-benzyl}-acetamide] | 0.041 | 0.021
3 | COc1cc(Nc2nc3cccc(-c4ccc(CNS(C)(=O)=O)cc4)c3o2)cc(OC)c1OC [Example 31, N-{4-[2-(3,4,5-Trimethoxy-phenylamino)-benzooxazol-7-yl]-benzyl}-methanesulfonamide] | 0.0605 | 0.0162
4 | CNC(=O)c1cc(-c2cccc3nc(Nc4cc(OC)c(OC)c(OC)c4)oc23)cs1 [Example 34, 4-[2-(3,4,5-Trimethoxy-phenylamino)-benzooxazol-7-yl]-thiophene-2-carboxylic acid methylamide] | 0.54 | –
5 | COc1cc(Nc2nc3ccnc(-c4ccc(N)cc4)c3o2)cc(OC)c1OC [Example 36, [4-(4-Amino-phenyl)-oxazolo[5,4-c]pyridin-2-yl]-(3,4,5-trimethoxy-phenyl)-amine] | 0.12 | –
6 | Nc1cccc(-c2cccc3nc(Nc4ccc(N5CCOCC5)cc4)oc23)c1 [Example 43, [7-(3-Amino-phenyl)-benzooxazol-2-yl]-(4-morpholin-4-yl-phenyl)-amine] | 1.9 | –
7 | COc1cc(Nc2nc3cccc(-c4ccccn4)c3o2)cc(OC)c1OC [Example 46, (7-Pyridin-2-yl-benzooxazol-2-yl)-(3,4,5-trimethoxy-phenyl)-amine] | 0.35 | –
8 | COCCNC(=O)c1ccc(Nc2nc3cccc(-c4ccc(S(N)(=O)=O)cc4)c3o2)cc1 [Example 56, N-(2-Methoxy-ethyl)-4-[7-(4-sulfamoyl-phenyl)-benzooxazol-2-ylamino]-benzamide] | 0.11 | 0.051
9 | CN(C)CCNC(=O)c1ccc(Nc2nc3cccc(-c4ccc(S(N)(=O)=O)cc4)c3o2)cc1 [Example 57, N-(2-Dimethylamino-ethyl)-4-[7-(4-sulfamoyl-phenyl)-benzooxazol-2-ylamino]-benzamide] | 0.15 | 0.037
10 | COc1ccc(Nc2nc3cccc(-c4ccc(S(N)(=O)=O)cc4)c3o2)cc1OC [Example 58, 4-[2-(3,4-Dimethoxy-phenylamino)-benzooxazol-7-yl]-benzenesulfonamide] | 0.0415 | 0.037
11 | CNS(=O)(=O)c1ccc(-c2cccc3nc(Nc4ccc(OC)c(OC)c4)oc23)cc1 [Example 59, 4-[2-(3,4-Dimethoxy-phenylamino)-benzooxazol-7-yl]-N-methyl-benzenesulfonamide] | 0.041 | –
12 | CNC(=O)Cc1ccc(-c2cccc3nc(Nc4cc(OC)c(OC)c(OC)c4)oc23)cc1 [Example 61, N-Methyl-2-{4-[2-(3,4,5-trimethoxy-phenylamino)-benzooxazol-7-yl]-phenyl}-acetamide] | 0.087 | –

Other lines, results leading:

Row | IC50 [1] [µM] | IC50 [2] [µM] | SMILES
13 | 0.178 | – | COc1cc(Nc2nc3cccc(-c4cccc(O)c4)c3o2)cc(OC)c1OC [Example 6, [7-(3-Hydroxy-phenyl)-benzooxazol-2-yl]-(3,4,5-trimethoxy-phenyl)-amine]
14 | 0.61 | – | COc1cc(Nc2nc3cccc(-c4ccccc4N)c3o2)cc(OC)c1OC [Example 14, [7-(2-Amino-phenyl)-benzooxazol-2-yl]-(3,4,5-trimethoxy-phenyl)-amine]
15 | 0.2 | – | COc1cc(Nc2nc3cccc(-c4ccc(NC(C)=O)cc4)c3o2)cc(OC)c1OC [Example 27, N-{4-[2-(3,4,5-Trimethoxy-phenylamino)-benzooxazol-7-yl]-phenyl}-acetamide]
16 | 0.25 | 0.066 | COc1cc(Nc2nc3cccc(-c4ccc(CN)cc4)c3o2)cc(OC)c1OC [Example 29, [7-(4-Aminomethyl-phenyl)-benzooxazol-2-yl]-(3,4,5-trimethoxy-phenyl)-amine]
17 | 0.12 | – | COc1cc(Nc2nc3cccc(-c4ccc5[nH]cnc5c4)c3o2)cc(OC)c1OC [Example 35, [7-(1H-Benzoimidazol-5-yl)-benzooxazol-2-yl]-(3,4,5-trimethoxy-phenyl)-amine]
18 | 0.93 | – | COc1cc(Nc2nc3cccc(-c4ccccc4C)c3o2)cc(OC)c1OC [Example 44, (7-o-Tolyl-benzooxazol-2-yl)-(3,4,5-trimethoxy-phenyl)-amine]
19 | 0.95 | – | COc1cc(Nc2nc3cccc(-c4cccc(C#N)c4)c3o2)cc(OC)c1OC [Example 45, 3-[2-(3,4,5-Trimethoxy-phenylamino)-benzooxazol-7-yl]-benzonitrile]
20 | 0.593 | – | COc1cc(Nc2nc3cccc(-c4cccc(C(N)=O)c4)c3o2)cc(OC)c1OC [Example 47, 3-[2-(3,4,5-Trimethoxy-phenylamino)-benzooxazol-7-yl]-benzamide]
21 | 0.7 | – | COc1cc(Nc2nc3cccc(-c4cccc([N+](=O)[O-])c4)c3o2)cc(OC)c1OC [Example 48, [7-(3-Nitro-phenyl)-benzooxazol-2-yl]-(3,4,5-trimethoxy-phenyl)-amine]
22 | 0.52 | – | COc1cc(Nc2nc3cccc(-c4cccc(S(C)(=O)=O)c4)c3o2)cc(OC)c1OC [Example 49, [7-(3-Methanesulfonyl-phenyl)-benzooxazol-2-yl]-(3,4,5-trimethoxy-phenyl)-amine]
23 | 0.61 | – | CNS(=O)(=O)c1cccc(-c2cccc3nc(Nc4cc(OC)c(OC)c(OC)c4)oc23)c1 [Example 50, N-Methyl-3-[2-(3,4,5-trimethoxy-phenylamino)-benzooxazol-7-yl]-benzene-sulfonamide]
24 | 0.45 | – | COc1ccc(-c2cccc3nc(Nc4cc(OC)c(OC)c(OC)c4)oc23)cc1[N+](=O)[O-] [Example 51, [7-(4-Methoxy-3-nitro-phenyl)-benzooxazol-2-yl]-(3,4,5-trimethoxy-phenyl)-amine]
25 | 0.15 | – | COc1cc(Nc2nc3cccc(-c4ccc(Cl)c(N)c4)c3o2)cc(OC)c1OC [Example 52, [7-(3-Amino-4-chloro-phenyl)-benzooxazol-2-yl]-(3,4,5-trimethoxy-phenyl)-amine]
26 | 0.557 | – | COc1ccc(-c2cccc3nc(Nc4cc(OC)c(OC)c(OC)c4)oc23)cc1N [Example 53, [7-(3-Amino-4-methoxy-phenyl)-benzooxazol-2-yl]-(3,4,5-trimethoxy-phenyl)-amine]
27 | 0.35 | – | COc1cc(Nc2nc3cccc(-c4ccc(N(C)C)cc4)c3o2)cc(OC)c1OC [Example 54, [7-(4-Dimethylamino-phenyl)-benzooxazol-2-yl]-(3,4,5-trimethoxy-phenyl)-amine]
28 | 0.42 | – | COc1cc(Nc2nc3cccc(-c4cccc(NS(C)(=O)=O)c4)c3o2)cc(OC)c1OC [Example 55, N-{3-[2-(3,4,5-Trimethoxy-phenylamino)-benzooxazol-7-yl]-phenyl}-methanesulfonamide]
